A short description of the experiment: blood potassium level from regular blood samples in the same clinical study. It is filed as in vivo, human. The note with it: after the 24th month, taking into account the starting value; vs placebo; p<0.0001. From the text:
The potassium concentration-modulating effect is clearly documented in the study by virtue of the results of analyses of regular blood samples taken throughout the duration of the study in the context of the monitoring of vital parameters.
The variations in potassium (in mmol/l) between the first and the last administration of the medicament of the study are included in FIG. 8, in which B signifies basal level, D signifies day and M signifies month.

Structures can show the parent of a compound that is named as a salt.

As to `CCCCc1oc2ccc(NS(C)(=O)=O)cc2c1C(=O)c1ccc(OCCCN(CCCC)CCCC)cc1` [dronedarone hydrochloride, 2-n-Butyl-3-[4-(3-di-n-butylaminopropoxy)benzoyl]-5-methylsulphonamidobenzofuran], the “change in blood potassium level (analysis of covariance)” value is on record as “significant different in favour of dronedarone”.

The values above are taken from patent US9107900B2, “Use of dronedarone for the preparation of a medicament for use in the prevention of cardiovascular hospitalization or of morality” (SANOFI, priority 2008, dated 2015).
